Test results as given in patent US7145032B2, “Therapeutic malonic acid/acetic acid C60 tri-adducts of buckminsterfullerene and methods related thereto” (priority 2002, dated 2006).

Key:
[1] = system: monkeys; settings: one monkey; mean survival 25 months; cited from earlier work
[2] = system: rats; settings: treatment from age 96 weeks to end of life; control 147+/−1; cited from earlier work
[3] = system: Fisher 344 rats; settings: same dose of deprenyl; cited from earlier work
[4] = system: Fisher 344 rats; settings: cited from earlier work
[5] = system: Drosophila; settings: controlled study; cited from earlier work
[6] = system: C57B6 mice; settings: chronic treatment starting at 18 months of age; cited from earlier work
[7] = Solubility; assay type: physicochemical
Description: The progress of the reaction was monitored by HPLC (Protocol 2).

[8] = Plasma pharmacokinetics and tissue distribution in mice
Description: The above dosing information is based on a pharmokinetics study carried out in mice, toxicity testing in mice and toxicity testing in rats.

[9] = Thermal stability in 1:1 acetonitrile:water at 60°; assay type: physicochemical; settings: for Hexa, percent of injected compound (HPLC): 60° C.
Description: The composition was monitored by HPLC, using protocols 2 and 4 (see Table 1).

[10] = system: C57B6 mice; assay type: in vivo; settings: oral C3 from 12 months of age to end of life, versus control
Description: The date of spontaneous death for each mouse was recorded, and used to calculate the lifespan. Lifespan of each mouse was calculated in months because mice received from the NIA rodent colony have their birth month, but not their specific birth date, recorded. Average survival was calculated for each treatment and the mean lifespans were compared using a t-test with significance set to p<0.05 (actual p=0.033).
Twelve month old C57B6NIH male and female mice (equal numbers) were purchased from the National Institute on Aging (NIA) Aging Rodent Colony. Mice shipped from this colony were not selected in any way for health, tumors or other disabilities, and all mice obtained from the colony were subsequently enrolled in the study. […]
Solution A or solution B was placed in the water bottles, and solutions were topped-off twice weekly, and filtered to remove any particulates biweekly by an individual blind to the identity of the solutions. […] Mice were allowed to die spontaneously, and their date of death were recorded by the Animal Housing Facility staff as part of the normal operating procedure of the facility. […] When animals died, the cage number, identity of the animal, and the date of death were recorded on the death notice, which was then sent to the laboratory, where the information was entered into the database.

[11] = Reactivity of C3 with superoxide; assay type: biochemical; settings: calculated
Description: Because many important biological reactions generate reactive oxygen species intentionally, or as unwanted toxic by-products, antioxidant molecules capable of supplementing the antioxidant defenses of cells as potential therapeutic agents are therapeutically useful. […] These novel carboxyfullerene compositions have antioxidant properties.

[12] = Hydration of freeze dried sodium salt; assay type: physicochemical; settings: dry weight divided by expected weight for complete neutralization; freeze dried 4 days

O=CC[C@@H](O)[C@H](O)[C@H](O)CO [2-deoxyglucose]
survival of a treated monkey [1]: 38 months

C#CCN(C)[C@H](C)Cc1ccccc1 [deprenyl]
lifespan of treated rats [2]: 198+/−2 weeks | effect on mortality and lifespan [3]: greater mortality and shortened lifespan | increase in longevity ([4]; not statistically significant): 7% | mean survival of treated animals ([4]; treatment from 18 months of age, controls 28 months): 30 months | effect on lifespan [5]: did not show an increase in lifespan | survival benefit [6]: failed to show any survival benefit

e,e,e tris malonic acid C60 [Compound C3]
Solubility Sodium salt ([7]; calculated for the acid, unit not printed for this column (neighbour: mg/ml)): >450^6 | Solubility Water ([7]; uv of liquid portion of a saturated solution): >454^6 mg/ml | route of clearance [8]: excretion through both the liver and kidney | tissue levels / distribution ([8]; various times after ip administration): accumulation through the liver and kidney | Thermal Stability # of products ([9]; 60°): 10 | Hexa, percent of injected compound (HPLC) ([9]; incubation 5.5 h): 2.6% | Hexa, percent of injected compound (HPLC) ([9]; incubation […]): 9.2% | Hexa, percent of injected compound (HPLC) ([9]; incubation […], 97.4% at 0 h): 40.5% | increase in the lifespan [10]: approximately 20% | rate constant of C3 reaction with superoxide [11]: 3e+06 M⁻¹ s⁻¹ | Hydration of Na salt [12]: 1.31
